Experimental data as given in patent US7964531B2, “3-phenoxy-4-pyridazinol derivatives and herbicidal composition containing the same” (Mitsui Chemicals Agro, Inc., priority 2001, dated 2011).

Columns and labels:
Format in all cases: in vivo
Conditions in all cases: wettable powder applied 3 days after transplanting, judged after 25 days
Cyperus serotinus = assay: Test Example 1: herbicidal effects, paddy-field pot test
Procedure: (§1) A paddy soil was filled in 1/10,000 are pot, and seeds of barnyardgrass (Echinochloa oryzicola Vasing.), Scirpus joncoides and annual broad-leaved weeds (Lindernia spp., Rotala indica) which are awaken from dormancy were mixed at the surface layer of 1 cm. Also, tuber of Cyperus serotinus which is germinated was planted, and further seedlings of paddy-field rice at 2.2-leaf stage were transplanted, and they were grown under the flooded condition in a greenhouse. After 3 days from transplanting, a predetermined chemical dosage of the wettable powder prepared in accordance with Preparation example 1 was diluted in water, and the solution was applied to the pot and herbicidal effects and crop injury against transplanted paddy-field rice were judged after 25 days from the treatment. Also, 3-(2-allylphenoxy)-6-chloro-4-methoxypyridazine described in Chemical Pharmaceutical Bulletin, 1972, vol. 20, No. 10, pp. 2191-2203 was used as Comparative compound. Incidentally, herbicidal effects and crop injury against transplanted paddy-field rice were judged by the following judgment standard, and “-” in the table means no test was carried out.
(§2) Judgment Standard • 0: Growth inhibition rate; 0 to 10% • 1: Growth inhibition rate; 11 to 30% • 2: Growth inhibition rate; 31 to 50% • 3: Growth inhibition rate; 51 to 70% • 4: Growth inhibition rate; 71 to 90% • 5: Growth inhibition rate; 91 to 100%.

Scirpus joncoides = assay: as above
Procedure: as §1, §2

[1] = test system: annual broad-leaved weeds (Lindernia spp., Rotala indica); assay: as above
Procedure: as §1, §2

[2] = test system: barnyardgrass (Echinochloa oryzicola Vasing.); assay: as above
Procedure: as §1, §2

[3] = test system: transplanted paddy-field rice; assay: Test Example 1: crop injury against transplanted paddy-field rice
Procedure: as §1, §2

For `Cc1ccc2c(c1Oc1nnc(Cl)cc1O)CCC2` [Example 305], the “Herbicidal effects Cyperus serotinus” value (Cyperus serotinus; chemical dosage 10 g/a) was 5 (Growth inhibition rate; 91 to 100%), the “Herbicidal effects Scirpus joncoides” value (Scirpus joncoides; chemical dosage 10 g/a) was 5 (Growth inhibition rate; 91 to 100%) and the “Herbicidal effects Broad leaf” value ([1]; chemical dosage 10 g/a) was 5 (Growth inhibition rate; 91 to 100%). For the same molecule, the “Herbicidal effects Barnyard grass” value ([2]; chemical dosage 10 g/a) was 1 (Growth inhibition rate; 11 to 30%) and the “Crop injury against transplanted rice” value ([3]; chemical dosage 10 g/a) was 0 (Growth inhibition rate; 0 to 10%).

For `O=[N+]([O-])c1ccc(S(=O)(=O)Oc2cc(Cl)nnc2Oc2ccccc2C2CC2)cc1` [Example 394], the “Herbicidal effects Cyperus serotinus” value (Cyperus serotinus; chemical dosage 10 g/a) was 5 (Growth inhibition rate; 91 to 100%), the “Herbicidal effects Cyperus serotinus” value (Cyperus serotinus; chemical dosage 20 g/a) was 5 (Growth inhibition rate; 91 to 100%) and the “Herbicidal effects Scirpus joncoides” value (Scirpus joncoides; chemical dosage 10 g/a) was 4 (Growth inhibition rate; 71 to 90%). For the same molecule, the “Herbicidal effects Scirpus joncoides” value (Scirpus joncoides; chemical dosage 20 g/a) was 5 (Growth inhibition rate; 91 to 100%), the “Herbicidal effects Broad leaf” value ([1]; chemical dosage 10 g/a) was 5 (Growth inhibition rate; 91 to 100%) and the “Herbicidal effects Broad leaf” value ([1]; chemical dosage 20 g/a) was 5 (Growth inhibition rate; 91 to 100%). For the same molecule, the “Herbicidal effects Barnyard grass” value ([2]; chemical dosage 10 g/a) was 2 (Growth inhibition rate; 31 to 50%), the “Herbicidal effects Barnyard grass” value ([2]; chemical dosage 20 g/a) was 3 (Growth inhibition rate; 51 to 70%) and the “Crop injury against transplanted rice” value ([3]; chemical dosage 10 g/a) was 0 (Growth inhibition rate; 0 to 10%). For the same molecule, the “Crop injury against transplanted rice” value ([3]; chemical dosage 20 g/a) was 0 (Growth inhibition rate; 0 to 10%).

In the case of `CCc1cccc(Cl)c1Oc1nnc(Cl)cc1O` [Example 243], the “Herbicidal effects Cyperus serotinus” value (Cyperus serotinus; chemical dosage 12.5 g/a) is reported as 5 (Growth inhibition rate; 91 to 100%), the “Herbicidal effects Cyperus serotinus” value (Cyperus serotinus; chemical dosage 25 g/a) is reported as 5 (Growth inhibition rate; 91 to 100%) and the “Herbicidal effects Scirpus joncoides” value (Scirpus joncoides; chemical dosage 12.5 g/a) is reported as 4 (Growth inhibition rate; 71 to 90%). For the same molecule, the “Herbicidal effects Scirpus joncoides” value (Scirpus joncoides; chemical dosage 25 g/a) was 4 (Growth inhibition rate; 71 to 90%), the “Herbicidal effects Broad leaf” value ([1]; chemical dosage 12.5 g/a) was 5 (Growth inhibition rate; 91 to 100%) and the “Herbicidal effects Broad leaf” value ([1]; chemical dosage 25 g/a) was 5 (Growth inhibition rate; 91 to 100%). For the same molecule, the “Herbicidal effects Barnyard grass” value ([2]; chemical dosage 12.5 g/a) was 1 (Growth inhibition rate; 11 to 30%), the “Herbicidal effects Barnyard grass” value ([2]; chemical dosage 25 g/a) was 2 (Growth inhibition rate; 31 to 50%) and the “Crop injury against transplanted rice” value ([3]; chemical dosage 12.5 g/a) was 0 (Growth inhibition rate; 0 to 10%). For the same molecule, the “Crop injury against transplanted rice” value ([3]; chemical dosage 25 g/a) was 0 (Growth inhibition rate; 0 to 10%).

With `CC(C)c1cccc(Br)c1Oc1nnc(Cl)cc1O` [Example 19] the “Herbicidal effects Cyperus serotinus” value (Cyperus serotinus; chemical dosage 12.5 g/a) was 5 (Growth inhibition rate; 91 to 100%), the “Herbicidal effects Cyperus serotinus” value (Cyperus serotinus; chemical dosage 25 g/a) was 5 (Growth inhibition rate; 91 to 100%) and the “Herbicidal effects Scirpus joncoides” value (Scirpus joncoides; chemical dosage 12.5 g/a) was 4 (Growth inhibition rate; 71 to 90%). For the same molecule, the “Herbicidal effects Scirpus joncoides” value (Scirpus joncoides; chemical dosage 25 g/a) was 4 (Growth inhibition rate; 71 to 90%), the “Herbicidal effects Broad leaf” value ([1]; chemical dosage 12.5 g/a) was 5 (Growth inhibition rate; 91 to 100%) and the “Herbicidal effects Broad leaf” value ([1]; chemical dosage 25 g/a) was 5 (Growth inhibition rate; 91 to 100%). For the same molecule, the “Herbicidal effects Barnyard grass” value ([2]; chemical dosage 12.5 g/a) was 0 (Growth inhibition rate; 0 to 10%), the “Herbicidal effects Barnyard grass” value ([2]; chemical dosage 25 g/a) was 1 (Growth inhibition rate; 11 to 30%) and the “Crop injury against transplanted rice” value ([3]; chemical dosage 12.5 g/a) was 1 (Growth inhibition rate; 11 to 30%). For the same molecule, the “Crop injury against transplanted rice” value ([3]; chemical dosage 25 g/a) was 1 (Growth inhibition rate; 11 to 30%).

`Cc1ccc(C)c(Oc2nnc(Cl)cc2O)c1` [Example 205] was tested, and the “Herbicidal effects Cyperus serotinus” value (Cyperus serotinus; chemical dosage 12.5 g/a) was 5 (Growth inhibition rate; 91 to 100%), the “Herbicidal effects Cyperus serotinus” value (Cyperus serotinus; chemical dosage 25 g/a) was 5 (Growth inhibition rate; 91 to 100%) and the “Herbicidal effects Scirpus joncoides” value (Scirpus joncoides; chemical dosage 12.5 g/a) was 5 (Growth inhibition rate; 91 to 100%). For the same molecule, the “Herbicidal effects Scirpus joncoides” value (Scirpus joncoides; chemical dosage 25 g/a) was 5 (Growth inhibition rate; 91 to 100%), the “Herbicidal effects Broad leaf” value ([1]; chemical dosage 12.5 g/a) was 5 (Growth inhibition rate; 91 to 100%) and the “Herbicidal effects Broad leaf” value ([1]; chemical dosage 25 g/a) was 5 (Growth inhibition rate; 91 to 100%). For the same molecule, the “Herbicidal effects Barnyard grass” value ([2]; chemical dosage 12.5 g/a) was 0 (Growth inhibition rate; 0 to 10%), the “Herbicidal effects Barnyard grass” value ([2]; chemical dosage 25 g/a) was 1 (Growth inhibition rate; 11 to 30%) and the “Crop injury against transplanted rice” value ([3]; chemical dosage 12.5 g/a) was 0 (Growth inhibition rate; 0 to 10%). The “Crop injury against transplanted rice” value ([3]; chemical dosage 25 g/a) was 0 (Growth inhibition rate; 0 to 10%).
